pIC50: −log10 of the molar value.
Experiments:
Format in all cases: binding
BRD4-BD2 [1] = biological target: T1, BRD4-BD2 (Homo sapiens (Human), UniProt O60885); assay: BRD4 AlphaScreen Assay (Example A1), BRD4-BD2; conditions: Assay A1, 20 nM BRD4-BD2, 50 nM H4Ac4 peptide; read-out: BRD4 BD-2 enzyme IC50
Protocol: (§1) BRD4-BD1 and BRD4-BD2 assays were conducted in white 384-well polystyrene plate in a final volume of 20 μL for BD1 and 40 μL for BD2. Inhibitors were first serially diluted in DMSO and added to the plate wells before the addition of other reaction components. […] After plate sealing, the plate was incubated in the dark at room temperature for 75 min. before reading on a PHERAstar FS plate reader (BMG Labtech). IC50 determination was performed by fitting the curve of percent control activity versus the log of the inhibitor concentration using the GraphPad Prism 5.0 software.

BRD4-BD1 [2] = biological target: T2, BRD4-BD1 (Homo sapiens (Human), UniProt O60885); assay: BRD4 AlphaScreen Assay (Example A1), BRD4-BD1; conditions: Assay A1, 3.8 nM BRD4-BD1, 50 nM H4Ac4 peptide; read-out: BRD4 BD-1 enzyme IC50
Protocol: as §1

BRD4-BD1 [3] = biological target: T2, BRD4-BD1; assay: BRD4 AlphaScreen Assay (Example A2), BRD4-BD1; conditions: Assay A2, AlphaScreen, BRD4-BD1; read-out: BRD4 BD-1 enzyme IC50
Summary of the method: (§2)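 Displacement of 50 nM biotinylated tetra-acetylated histone H4 peptide from BRD4 BD1 or BD2 (<1 nM) in Tris-HCl pH 7.5 buffer with DTT. Inhibitors serially diluted in DMSO, added first, then incubated 75 min in the dark at room temperature before AlphaScreen read. IC50 fitted from percent control activity versus log concentration.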

BRD4-BD2 [4] = biological target: T1, BRD4-BD2; assay: BRD4 AlphaScreen Assay (Example A2), BRD4-BD2; conditions: Assay A2, AlphaScreen, BRD4-BD2; read-out: BRD4 BD-2 enzyme IC50
Summary of the method: as §2

| pIC50 (BRD4-BD2 [1]) | pIC50 (BRD4-BD1 [2]) | pIC50 (BRD4-BD1 [3]) | pIC50 (BRD4-BD2 [4]) | SMILES |
| --- | --- | --- | --- | --- |
| > 7.00 | > 7.00 |  |  | CNc1nc2ccc(-c3c(C)noc3C)c3c2n1C(c1ccccc1)CO3 (stereo not shown) [Example 26, 7-(3,5-Dimethylisoxazol-4-yl)-N-methyl-4-phenyl-4,5-dihydroimidazo[1,5,4-de][1,4]benzoxazin-2-amine] |
| > 7.00 | > 7.00 |  |  | CCNc1nc2ccc(-c3c(C)noc3C)c3c2n1C(c1ccccc1)CO3 (stereo not shown) [Example 27, 7-(3,5-Dimethylisoxazol-4-yl)-N-ethyl-4-phenyl-4,5-dihydroimidazo[1,5,4-de][1,4]benzoxazin-2-amine] |
| > 7.00 | > 7.00 |  |  | Cc1noc(C)c1-c1ccc2c3c1OCC(c1ccccc1)n3c(=O)n2C (stereo not shown) [Example 2, 7-(3,5-Dimethylisoxazol-4-yl)-1-methyl-4-phenyl-4,5-dihydroimidazo[1,5,4-de][1,4]benzoxazin-2(1H)-one] |
| > 7.00 | > 7.00 |  |  | Cc1noc(C)c1-c1ccc2nc(C)n3c2c1OCC3c1ccccc1 (stereo not shown) [Example 9, 7-(3,5-Dimethylisoxazol-4-yl)-2-methyl-4-phenyl-4,5-dihydroimidazo[1,5,4-de][1,4]benzoxazine] |
| > 7.00 | > 7.00 |  |  | Cc1noc(C)c1-c1ccc2nc(NCCO)n3c2c1OCC3c1ccccc1 (stereo not shown) [Example 29, 2-{[7-(3,5-Dimethylisoxazol-4-yl)-4-phenyl-4,5-dihydroimidazo[1,5,4-de][1,4]benzoxazin-2-yl]amino}ethanol] |
| > 7.00 | > 7.00 |  |  | Cc1noc(C)c1-c1ccc2[nH]c(=O)n3c2c1OCC3c1ccccc1OCC(=O)N(C)C (stereo not shown) [Example 51, 2-{2-[7-(3,5-Dimethylisoxazol-4-yl)-2-oxo-1,2,4,5-tetrahydroimidazo[1,5,4-de][1,4]benzoxazin-4-yl]phenoxy}-N,N-dimethylacetamide] |
| > 7.00 | > 7.00 |  |  | Cc1noc(C)c1-c1ccc2nc(NC(C)CO)n3c2c1OCC3c1ccccc1 (single isomer, unassigned) [Example 30, 2-{[7-(3,5-Dimethylisoxazol-4-yl)-4-phenyl-4,5-dihydroimidazo[1,5,4-de][1,4]benzoxazin-2-yl]amino}propan-1-ol] |
| 6.00 to 7.00 | 5.00 to 6.00 |  |  | Cc1n[nH]c(C)c1-c1ccc2[nH]c(=O)n3c2c1OCC3c1ccccc1 (stereo not shown) [Example 11, 7-(3,5-Dimethyl-1H-pyrazol-4-yl)-4-phenyl-4,5-dihydroimidazo[1,5,4-de][1,4]benzoxazin-2(1H)-one] |
| > 7.00 | > 7.00 |  |  | Cc1noc(C)c1-c1ccc2nc(N3CCCC3)n3c2c1OCC3c1ccccc1 (stereo not shown) [Example 54, 7-(3,5-Dimethylisoxazol-4-yl)-4-phenyl-2-pyrrolidin-1-yl-4,5-dihydroimidazo[1,5,4-de][1,4]benzoxazine] |
| > 7.00 | > 7.00 |  |  | Cc1noc(C)c1-c1ccc2[nH]c(=O)n3c2c1OCC3c1ccc(F)cc1 (stereo not shown) [Example 49, 7-(3,5-Dimethylisoxazol-4-yl)-4-(4-fluorophenyl)-4,5-dihydroimidazo[1,5,4-de][1,4]benzoxazin-2(1H)-one] |
| > 7.00 | 6.00 to 7.00 |  |  | Cn1nccc1-c1ccc2[nH]c(=O)n3c2c1OCC3c1ccccc1 (stereo not shown) [Example 35, 7-(1-Methyl-1H-pyrazol-5-yl)-4-phenyl-4,5-dihydroimidazo[1,5,4-de][1,4]benzoxazin-2(1H)-one] |
| 6.00 to 7.00 | 5.00 to 6.00 |  |  | Cn1ncc(Cl)c1-c1ccc2[nH]c(=O)n3c2c1OCC3c1ccccc1 (stereo not shown) [Example 38, 7-(4-Chloro-1-methyl-1H-pyrazol-5-yl)-4-phenyl-4,5-dihydroimidazo[1,5,4-de][1,4]benzoxazin-2(1H)-one] |
| > 7.00 | > 7.00 |  |  | Cc1noc(C)c1-c1ccc2nc(N(C)CCO)n3c2c1OCC3c1ccccc1 (stereo not shown) [Example 34, 2-[[7-(3,5-Dimethylisoxazol-4-yl)-4-phenyl-4,5-dihydroimidazo[1,5,4-de][1,4]benzoxazin-2-yl](methyl)amino]ethanol] |
| > 7.00 | 6.00 to 7.00 |  |  | Cn1nccc1-c1cc(Br)c2[nH]c(=O)n3c2c1OCC3c1ccccc1 (stereo not shown) [Example 36, 9-Bromo-7-(1-methyl-1H-pyrazol-5-yl)-4-phenyl-4,5-dihydroimidazo[1,5,4-de][1,4]benzoxazin-2(1H)-one] |
| > 7.00 | > 7.00 |  |  | Cc1noc(C)c1-c1ccc2nc(NC(C)CO)n3c2c1OCC3c1ccccc1 (single isomer, unassigned) [Example 31, 2-{[7-(3,5-Dimethylisoxazol-4-yl)-4-phenyl-4,5-dihydroimidazo[1,5,4-de][1,4]benzoxazin-2-yl]amino}propan-1-ol] |
| > 7.00 | > 7.00 |  |  | Cc1noc(C)c1-c1ccc2nc(N3CCN(C(=O)OC(C)(C)C)CC3)n3c2c1OCC3c1ccccc1 (stereo not shown) [Example 60] |
| > 7.00 | 6.00 to 7.00 |  |  | Cc1noc(C)c1-c1ccc2[nH]c(=O)n3c2c1OCC3C1CCCO1 (single isomer, unassigned) [Example 18A, 7-(3,5-Dimethylisoxazol-4-yl)-4-(tetrahydrofuran-2-yl)-4,5-dihydroimidazo[1,5,4-de][1,4]benzoxazin-2(1H)-one] |
| > 7.00 | 6.00 to 7.00 |  |  | Cc1noc(C)c1-c1ccc2[nH]c(=O)n3c2c1OCC3C1CCCO1 (single isomer, unassigned) [Example 18B, 7-(3,5-Dimethylisoxazol-4-yl)-4-(tetrahydrofuran-2-yl)-4,5-dihydroimidazo[1,5,4-de][1,4]benzoxazin-2(1H)-one] |
| > 7.00 | > 7.00 |  |  | COc1ccccc1C1COc2c(-c3c(C)noc3C)ccc3[nH]c(=O)n1c23 (stereo not shown) [Example 7, 7-(3,5-Dimethylisoxazol-4-yl)-4-(2-methoxyphenyl)-4,5-dihydroimidazo[1,5,4-de][1,4]benzoxazin-2(1H)-one] |
| > 7.00 | > 7.00 |  |  | Cc1noc(C)c1-c1ccc2nc(NCC(C)O)n3c2c1OCC3c1ccccc1 (stereo not shown) [Example 32, 1-{[7-(3,5-Dimethylisoxazol-4-yl)-4-phenyl-4,5-dihydroimidazo[1,5,4-de][1,4]benzoxazin-2-yl]amino}propan-2-ol] |
|  |  | > 7.00 | > 7.00 | Cc1noc(C)c1-c1ccc2[nH]c(=O)n3c2c1OCC3c1cccc[n+]1[O-] (stereo not shown) [Example 16, 7-(3,5-Dimethylisoxazol-4-yl)-4-(1-oxidopyridin-2-yl)-4,5-dihydroimidazo[1,5,4-de][1,4]benzoxazin-2(1H)-one] |
|  |  | > 7.00 | > 7.00 | Cc1noc(C)c1-c1ccc2nc(C3CCN(S(C)(=O)=O)CC3)n3c2c1OC[C@@H]3c1ccccn1 [Example 112, (4S)-7-(3,5-dimethylisoxazol-4-yl)-2-[1-(methylsulfonyl)piperidin-4-yl]-4-pyridin-2-yl-4,5-dihydroimidazo[1,5,4-de][1,4]benzoxazine] |
|  |  | 6.00 to 7.00 | 6.00 to 7.00 | Cc1noc(C)c1-c1cc(CNC(C)C)c2[nH]c(=O)n3c2c1OCC3c1ccccn1 (stereo not shown) [Example 253, 7-(3,5-Dimethylisoxazol-4-yl)-9-[(isopropylamino)methyl]-4-pyridin-2-yl-4,5-dihydroimidazo[1,5,4-de][1,4]benzoxazin-2(1H)-one] |
|  |  | > 7.00 | > 7.00 | Cc1noc(C)c1-c1cc(C#N)c2[nH]c(=O)n3c2c1OCC3c1ccccc1 (stereo not shown) [Example 42, 7-(3,5-Dimethylisoxazol-4-yl)-2-oxo-4-phenyl-1,2,4,5-tetrahydroimidazo[1,5,4-de][1,4]benzoxazine-9-carbonitrile] |
|  |  | 6.00 to 7.00 | > 7.00 | Cc1noc(C)c1-c1cc(CNC(=O)CN(C)C)c2[nH]c(=O)n3c2c1OC[C@@H]3c1ccccn1 [Example 143, 2-(Dimethylamino)-N-{[(4S)-7-(3,5-dimethylisoxazol-4-yl)-2-oxo-4-pyridin-2-yl-1,2,4,5-tetrahydroimidazo[1,5,4-de][1,4]benzoxazin-9-yl]methyl}acetamide] |
|  |  | > 7.00 | > 7.00 | CC(=O)N1CCC(c2nc3ccc(-c4c(C)noc4C)c4c3n2[C@@H](c2ccccn2)CO4)C1 (single isomer, unassigned; diastereomer 2) [Example 113B] |
|  |  | > 7.00 | > 7.00 | Cc1noc(C)c1-c1cc(F)c2[nH]c(=O)n3c2c1OCC3c1ccccn1 (stereo not shown) [Example 265B, 7-(3,5-dimethylisoxazol-4-yl)-9-fluoro-4-pyridin-2-yl-4,5-dihydroimidazo[1,5,4-de][1,4]benzoxazin-2(1H)-one] |
|  |  | > 7.00 | > 7.00 | Cc1noc(C)c1-c1ccc2nc(C(=O)OC(C)(C)C)n3c2c1OC[C@@H]3c1ccccn1 [Example 93, tert-Butyl (4S)-7-(3,5-dimethylisoxazol-4-yl)-4-pyridin-2-yl-4,5-dihydroimidazo[1,5,4-de][1,4]benzoxazine-2-carboxylate] |
|  |  | > 7.00 | > 7.00 | Cc1noc(C)c1-c1ccc2[nH]c(=O)n3c2c1OC(CO)C3c1ccccn1 (single isomer, unassigned) [Example 62B, 7-(3,5-Dimethylisoxazol-4-yl)-5-(hydroxymethyl)-4-pyridin-2-yl-4,5-dihydroimidazo[1,5,4-de][1,4]benzoxazin-2(1H)-one] |
